Measurements published in patent US6818631B1, “Fungicidal pyrimidine derivatives” (Nippon Soda Co. Ltd., priority 2003, dated 2004).

Row | SMILES | melting point
1 | O=C1CCCN1c1nc(-n2ccnc2)c(I)c(C(F)(F)F)n1 [Example 14, 1-(4-Imidazol-1-yl-5-iodo-6-trifluoromethylpyrimidin-2-yl)-pyrrolidin-2-one] | 195 to 197 °C
2 | CSc1nc(-c2nn[nH]n2)c(I)c(C(F)(F)F)n1 [Example 15, 5-Iodo-2-methylthio-4-(2H-tetrazol-5-yl)-6-trifluoromethyl-pyrimidine] | 196 to 200 °C
3 | Fc1c(-n2ccnc2)nc(-n2ccnc2)nc1C(F)(F)F [Example 19, 5-Fluoro-2,4-diimidazol-1-yl-6-trifluoromethylpyrimidine] | 142 to 150 °C (dec.)

Next, values leading:

Row | melting point | SMILES
4 | 128 to 129 °C | C#CCOc1nc(-n2ccnc2)c(I)c(C(F)(F)F)n1 [Example 13, 4-Imidazol-1-yl-5-iodo-2-prop-2-ynyloxy-6-trifluoromethyl-pyrimidine]
5 | 121 to 122 °C | C#Cc1c(-n2ccnc2)nc(C)nc1C(F)(F)F [Example 18, 5-Ethynyl-4-imidazol-1-yl-2-methyl-6-trifluoromethylpyrimidine]
